Data set [1] in a line: Determination of in vivo pharmacokinetic parameters (blood and brain) in rats, with and without Elacridar. Conditions: rat, oral 1 mg/kg. The protocol:
Adult male rats (Charles River, Italy) were dosed with test compound orally at 1 mg/kg (5 ml/kg, in 5% v/v DMSO, 0.5% w/v HPMC in water) and intravenously at 0.5 mg/kg (2 ml/kg, in 5% v/v DMSO 40% w/v PEG400 in saline). After oral administration, blood samples were collected under deep Isofluorane anesthesia from the portal vein and heart of each rat (1 rat per time point). After intravenous administration, serial blood samples were collected from the lateral tail vein of each rat. A further group of rats (n=1 per test compound) received a single intravenous administration of the PgP transport inhibitor, Elacridar (3 mg/kg) shortly before the oral administration of the test compound at 1 mg/kg, as above. Blood and brain samples were collected at a single timepoint of 0.5 h after dose administration for these animals. In all cases, blood samples were collected into potassium EDTA tubes.
Blood and brain samples were assayed for test compound concentration using a method based on protein precipitation with acetonitrile followed by HPLC/MS-MS analysis with an optimized analytical method.
The concentrations of test compound in blood (expressed as ng/ml) and brain (expressed as ng/g) at the different time points following either oral or intravenous dosing were analysed using a non-compartmental pharmacokinetic model using WinNonLin Professional version 4.1. The following parameters were drived:
Intravenous dosing: Maximum concentration over time (Cmax), integrated concentration over time (AUC), clearance (Clb), volume of distribution (Vss) and half-life (t1/2).
Oral dosing: Cmax, time of maximum concentration (Tmax), AUC, bioavailability (F %), fraction absorbed (Fa %), blood to brain ratio (AUC BB), and Fold-change in AUC BB in the presence of Elacridar.

Data set [2] addresses T1, human Kv3.2 channels (hKv3.2) (Homo sapiens, UniProt Q96PR1).
T1 construct: expressed in transfected cells
T1 sequence (Q96PR1 1-638): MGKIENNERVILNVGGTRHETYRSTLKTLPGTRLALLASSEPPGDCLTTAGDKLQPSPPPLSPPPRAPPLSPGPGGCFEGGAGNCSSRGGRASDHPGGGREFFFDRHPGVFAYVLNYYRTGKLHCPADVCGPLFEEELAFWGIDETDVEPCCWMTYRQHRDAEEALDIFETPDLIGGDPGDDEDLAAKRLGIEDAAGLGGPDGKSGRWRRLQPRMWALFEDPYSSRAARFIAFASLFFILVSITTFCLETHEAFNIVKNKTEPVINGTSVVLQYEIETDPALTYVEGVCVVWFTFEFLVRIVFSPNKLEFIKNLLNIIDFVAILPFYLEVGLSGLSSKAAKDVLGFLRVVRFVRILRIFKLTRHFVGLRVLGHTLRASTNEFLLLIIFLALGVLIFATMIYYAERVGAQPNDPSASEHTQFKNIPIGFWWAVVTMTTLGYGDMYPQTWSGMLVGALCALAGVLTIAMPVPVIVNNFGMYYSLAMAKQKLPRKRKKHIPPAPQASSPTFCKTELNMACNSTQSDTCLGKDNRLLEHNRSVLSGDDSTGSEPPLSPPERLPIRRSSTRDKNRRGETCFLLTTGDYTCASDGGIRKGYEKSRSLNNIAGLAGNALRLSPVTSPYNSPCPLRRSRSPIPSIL
Kind of data set: hKv3.2 recombinant cell assay, IonWorks Quattro planar array electrophysiology. Conditions: activity quantified by EC50. The data set is classed as cell-based. From the text:
The ability of the compounds of the invention to modulate the voltage-gated potassium channel subtypes Kv3.2/3.1 may be determined using the following assay. The assay may also be used to determine the ability of compounds of the invention to modulate the voltage-gated potassium channel Kv3.3. Analogous methods may be used to investigate the ability of the compounds of the invention to modulate other channel subtypes.
To assess compound effects on human Kv3.2 channels (hKv3.2), a stable cell line expressing human Kv3.2 channels (hKv3.2) was created by transfecting Chinese Hamster Ovary (CHO)—K1 cells with a pCIH5-hKv3.2 vector. Cells were cultured in DMEM/F12 medium supplemented by 10% Foetal Bovine Serum, 1× non-essential amino acids (Invitrogen) and 500 ug/ml of Hygromycin-B (Invitrogen). Cells were grown and maintained at 37° C. in a humidified environment containing 5% CO2 in air. […]
Experiments were conducted at room temperature using IonWorks Quattro™ planar array electrophysiology technology (Molecular Devices Corp.) with PatchPlate™ PPC. […] Planar electrode hole resistances (Rp) were determined by applying a 10 mV voltage step across each well. […] Test pulses protocol may be performed in the absence (pre-read) and presence (post-read) of the test compound. Pre- and post-reads may be separated by the compound addition followed by a 3 minute incubation. […]
For orientation: In patch-clamp work, channel activity is measured electrically.

As for `Cc1n[nH]c(=O)n1-c1ccc(Oc2cccc3c2C2(CC2)CO3)nc1` [Example 15, 5-methyl-4-[6-(spiro[1-benzofuran-3,1′-cyclopropan]-4-yloxy)pyridin-3-yl]-2,4-dihydro-3H-1,2,4-triazol-3-one], the “AUC BB relative to Reference Example 87 and Reference Example 88 of WO2011069951A1” value in data set [1] (AUC BB from blood and brain) is recorded as “at least two fold”. In data set [1] (Elacridar 3 mg/kg i.v., blood and brain at 0.5 h, p-glycoprotein interaction), the “change in AUC BB in the presence of Elacridar” value was “limited change”. The “selectivity for modulation of Kv3.2 channels over Kv3.1 channels” value in data set [2] is reported as “demonstrates selectivity for Kv3.2 channels”.

The values are drawn from patent US11180461B2, “Triazoles as Kv3 inhibitors” (AUTIFONY THERAPEUTICS LIMITED, priority 2012, dated 2021).
